No end group written: not given here.
Tests used:
Format in all cases: cell-based, human
Conditions in all cases: 24 h
[1] = test system: SCC4 cells of head and neck cancer; assay: transwell migration test
[2] = test system: UOK262 cells of kidney cancer; assay: transwell migration test
[3] = test system: TE13 cells of esophageal squamous cell carcinoma; assay: transwell migration test
[4] = test system: MDA-MB-231 cells of breast cancer; assay: transwell migration test
[5] = test system: A431 cells of skin cancer; assay: transwell migration test
[6] = test system: MGC803 cells of stomach cancer; assay: transwell migration test
[7] = test system: SW579 cells of thyroid cancer; assay: transwell migration test
[8] = test system: A549 cells of lung cancer; assay: transwell migration test
[9] = test system: SCC4 cells of head and neck cancer; assay: Matrigel transwell invasion test
Procedure, shortened: (§1)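 Serum-starved human tumour cells invade through air-dried Matrigel toward 10% FBS over 24 h at 37 °C while exposed to peptide at 1, 4 or 16 μM. Invaded cells are fixed, stained with crystal violet and counted in four fields, giving inhibition relative to untreated wells.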

[10] = test system: UOK262 cells of kidney cancer; assay: Matrigel transwell invasion test
Procedure, shortened: as §1

[11] = test system: TE13 cells of esophageal squamous cell carcinoma; assay: Matrigel transwell invasion test
Procedure, shortened: as §1

[12] = test system: MDA-MB-231 cells of breast cancer; assay: Matrigel transwell invasion test
Procedure, shortened: as §1

[13] = test system: A431 cells of skin cancer; assay: Matrigel transwell invasion test
Procedure, shortened: as §1

[14] = test system: MGC803 cells of stomach cancer; assay: Matrigel transwell invasion test
Procedure, shortened: as §1

[15] = test system: SW579 cells of thyroid cancer; assay: Matrigel transwell invasion test
Procedure, shortened: as §1

[16] = test system: A549 cells of lung cancer; assay: Matrigel transwell invasion test
Procedure, shortened: as §1

## MGSTGVPGFSPRRSSVEAKMQSTSCSVRKSSTVTAWPAVVLLLSWGQRRGG-OH [HMMW-VII]
[1]; dose 1 μM
  migration inhibition rate: 17.42%
[1]; dose 4 μM
  migration inhibition rate: 44.61%
[1]; dose 16 μM
  migration inhibition rate: 72.34%
[2]; dose 1 μM
  migration inhibition rate: 19.24%
[2]; dose 4 μM
  migration inhibition rate: 40.21%
[2]; dose 16 μM
  migration inhibition rate: 72.40%
[3]; dose 1 μM
  migration inhibition rate: 23.64%
[3]; dose 4 μM
  migration inhibition rate: 41.21%
[3]; dose 16 μM
  migration inhibition rate: 63.30%
[4]; dose 1 μM
  migration inhibition rate: 28.27%
[4]; dose 4 μM
  migration inhibition rate: 50.14%
[4]; dose 16 μM
  migration inhibition rate: 72.15%
[5]; dose 1 μM
  migration inhibition rate: 32.10%
[5]; dose 4 μM
  migration inhibition rate: 52.22%
[5]; dose 16 μM
  migration inhibition rate: 70.11%
[6]; dose 1 μM
  migration inhibition rate: 26.60%
[6]; dose 4 μM
  migration inhibition rate: 51.31%
[6]; dose 16 μM
  migration inhibition rate: 70.62%
[7]; dose 1 μM
  migration inhibition rate: 20.80%
[7]; dose 4 μM
  migration inhibition rate: 53.13%
[7]; dose 16 μM
  migration inhibition rate: 70.92%
[8]; dose 1 μM
  migration inhibition rate: 35.01%
[8]; dose 4 μM
  migration inhibition rate: 53.91%
[8]; dose 16 μM
  migration inhibition rate: 71.36%
[9]; dose 1 μM
  invasion inhibition rate: 19.70%
[9]; dose 4 μM
  invasion inhibition rate: 43.11%
[9]; dose 16 μM
  invasion inhibition rate: 70.84%
[10]; dose 1 μM
  invasion inhibition rate: 36.74%
[10]; dose 4 μM
  invasion inhibition rate: 56.26%
[10]; dose 16 μM
  invasion inhibition rate: 67.62%
[11]; dose 1 μM
  invasion inhibition rate: 25.11%
[11]; dose 4 μM
  invasion inhibition rate: 45.36%
[11]; dose 16 μM
  invasion inhibition rate: 67.52%
[12]; dose 1 μM
  invasion inhibition rate: 27.91%
[12]; dose 4 μM
  invasion inhibition rate: 49.55%
[12]; dose 16 μM
  invasion inhibition rate: 74.32%
[13]; dose 1 μM
  invasion inhibition rate: 34.70%
[13]; dose 4 μM
  invasion inhibition rate: 55.51%
[13]; dose 16 μM
  invasion inhibition rate: 69.24%
[14]; dose 1 μM
  invasion inhibition rate: 29.50%
[14]; dose 4 μM
  invasion inhibition rate: 54.34%
[14]; dose 16 μM
  invasion inhibition rate: 69.57%
[15]; dose 1 μM
  invasion inhibition rate: 20.11%
[15]; dose 4 μM
  invasion inhibition rate: 43.72%
[15]; dose 16 μM
  invasion inhibition rate: 63.71%
[16]; dose 1 μM
  invasion inhibition rate: 32.22%
[16]; dose 4 μM
  invasion inhibition rate: 52.42%
[16]; dose 16 μM
  invasion inhibition rate: 64.02%

## MGSTYNKRHSPRRSSVEAKMQSTSCSVRKSSTVTAWPAVVLLLSWGQRRGG-OH [HMMW-III]
[1]; dose 1 μM
  migration inhibition rate: 16.81%
[1]; dose 4 μM
  migration inhibition rate: 43.94%
[1]; dose 16 μM
  migration inhibition rate: 74.01%
[2]; dose 1 μM
  migration inhibition rate: 16.39%
[2]; dose 4 μM
  migration inhibition rate: 41.38%
[2]; dose 16 μM
  migration inhibition rate: 70.47%
[3]; dose 1 μM
  migration inhibition rate: 22.76%
[3]; dose 4 μM
  migration inhibition rate: 41.29%
[3]; dose 16 μM
  migration inhibition rate: 65.32%
[4]; dose 1 μM
  migration inhibition rate: 27.06%
[4]; dose 4 μM
  migration inhibition rate: 51.34%
[4]; dose 16 μM
  migration inhibition rate: 74.38%
[5]; dose 1 μM
  migration inhibition rate: 32.13%
[5]; dose 4 μM
  migration inhibition rate: 54.27%
[5]; dose 16 μM
  migration inhibition rate: 72.21%
[6]; dose 1 μM
  migration inhibition rate: 25.61%
[6]; dose 4 μM
  migration inhibition rate: 52.45%
[6]; dose 16 μM
  migration inhibition rate: 74.80%
[7]; dose 1 μM
  migration inhibition rate: 18.83%
[7]; dose 4 μM
  migration inhibition rate: 50.04%
[7]; dose 16 μM
  migration inhibition rate: 71.92%
[8]; dose 1 μM
  migration inhibition rate: 33.01%
[8]; dose 4 μM
  migration inhibition rate: 54.93%
[8]; dose 16 μM
  migration inhibition rate: 72.42%
[9]; dose 1 μM
  invasion inhibition rate: 22.75%
[9]; dose 4 μM
  invasion inhibition rate: 48.24%
[9]; dose 16 μM
  invasion inhibition rate: 75.84%
[10]; dose 1 μM
  invasion inhibition rate: 34.37%
[10]; dose 4 μM
  invasion inhibition rate: 55.15%
[10]; dose 16 μM
  invasion inhibition rate: 67.23%
[11]; dose 1 μM
  invasion inhibition rate: 21.23%
[11]; dose 4 μM
  invasion inhibition rate: 41.81%
[11]; dose 16 μM
  invasion inhibition rate: 63.31%
[12]; dose 1 μM
  invasion inhibition rate: 28.91%
[12]; dose 4 μM
  invasion inhibition rate: 49.82%
[12]; dose 16 μM
  invasion inhibition rate: 68.36%
[13]; dose 1 μM
  invasion inhibition rate: 33.70%
[13]; dose 4 μM
  invasion inhibition rate: 53.21%
[13]; dose 16 μM
  invasion inhibition rate: 67.33%
[14]; dose 1 μM
  invasion inhibition rate: 25.11%
[14]; dose 4 μM
  invasion inhibition rate: 53.38%
[14]; dose 16 μM
  invasion inhibition rate: 67.61%
[15]; dose 1 μM
  invasion inhibition rate: 18.63%
[15]; dose 4 μM
  invasion inhibition rate: 42.76%
[15]; dose 16 μM
  invasion inhibition rate: 63.89%
[16]; dose 1 μM
  invasion inhibition rate: 32.13%
[16]; dose 4 μM
  invasion inhibition rate: 52.30%
[16]; dose 16 μM
  invasion inhibition rate: 66.09%

## MGSTYNPGFSPRRSSVEAKMQSTSCSVRKSSTVTAWPAVVLLLSWGQRRGG-OH [HMMW-V]
[1]; dose 1 μM
  migration inhibition rate: 18.36%
[1]; dose 4 μM
  migration inhibition rate: 44.67%
[1]; dose 16 μM
  migration inhibition rate: 71.04%
[2]; dose 1 μM
  migration inhibition rate: 18.29%
[2]; dose 4 μM
  migration inhibition rate: 42.28%
[2]; dose 16 μM
  migration inhibition rate: 72.43%
[3]; dose 1 μM
  migration inhibition rate: 23.74%
[3]; dose 4 μM
  migration inhibition rate: 42.23%
[3]; dose 16 μM
  migration inhibition rate: 64.31%
[4]; dose 1 μM
  migration inhibition rate: 28.07%
[4]; dose 4 μM
  migration inhibition rate: 50.24%
[4]; dose 16 μM
  migration inhibition rate: 74.18%
[5]; dose 1 μM
  migration inhibition rate: 30.14%
[5]; dose 4 μM
  migration inhibition rate: 54.12%
[5]; dose 16 μM
  migration inhibition rate: 70.12%
[6]; dose 1 μM
  migration inhibition rate: 27.64%
[6]; dose 4 μM
  migration inhibition rate: 54.41%
[6]; dose 16 μM
  migration inhibition rate: 75.82%
[7]; dose 1 μM
  migration inhibition rate: 17.45%
[7]; dose 4 μM
  migration inhibition rate: 51.13%
[7]; dose 16 μM
  migration inhibition rate: 71.93%
[8]; dose 1 μM
  migration inhibition rate: 35.01%
[8]; dose 4 μM
  migration inhibition rate: 53.91%
[8]; dose 16 μM
  migration inhibition rate: 71.36%
[9]; dose 1 μM
  invasion inhibition rate: 20.34%
[9]; dose 4 μM
  invasion inhibition rate: 46.26%
[9]; dose 16 μM
  invasion inhibition rate: 74.71%
[10]; dose 1 μM
  invasion inhibition rate: 33.43%
[10]; dose 4 μM
  invasion inhibition rate: 53.27%
[10]; dose 16 μM
  invasion inhibition rate: 66.14%
[11]; dose 1 μM
  invasion inhibition rate: 20.29%
[11]; dose 4 μM
  invasion inhibition rate: 42.74%
[11]; dose 16 μM
  invasion inhibition rate: 66.69%
[12]; dose 1 μM
  invasion inhibition rate: 27.25%
[12]; dose 4 μM
  invasion inhibition rate: 48.37%
[12]; dose 16 μM
  invasion inhibition rate: 70.50%
[13]; dose 1 μM
  invasion inhibition rate: 32.19%
[13]; dose 4 μM
  invasion inhibition rate: 51.35%
[13]; dose 16 μM
  invasion inhibition rate: 69.29%
[14]; dose 1 μM
  invasion inhibition rate: 26.53%
[14]; dose 4 μM
  invasion inhibition rate: 50.24%
[14]; dose 16 μM
  invasion inhibition rate: 68.38%
[15]; dose 1 μM
  invasion inhibition rate: 19.09%
[15]; dose 4 μM
  invasion inhibition rate: 44.23%
[15]; dose 16 μM
  invasion inhibition rate: 64.14%
[16]; dose 1 μM
  invasion inhibition rate: 31.19%
[16]; dose 4 μM
  invasion inhibition rate: 51.27%
[16]; dose 16 μM
  invasion inhibition rate: 64.25%
